Source: ChEMBL document CHEMBL3046389, “Synthesis and biological evaluation of novel hydroquinone dimethyl ethers as potential anticancer and antimicrobial agents” (2013)
≈ marks a conversion by molar mass, not a printed value.

How the values were obtained:
Format in all cases: functional
[1] = tested on: Candida albicans; test: Antimicrobial activity against Candida albicans DSM 70014 after 48 hr by two-fold serial broth dilution method; details: DSM 70014, 48 h
[2] = tested on: Pseudomonas aeruginosa; test: Antimicrobial activity against Pseudomonas aeruginosa ATCC 10145 after 48 hr by two-fold serial broth dilution method; details: ATCC 10145, 48 h
[3] = tested on: Staphylococcus aureus; test: Antimicrobial activity against Staphylococcus aureus DSM 1104 after 48 hr by two-fold serial broth dilution method; details: DSM 1104, 48 h
[4] = tested on: Escherichia coli; test: Antimicrobial activity against Escherichia coli ATCC 11775 after 48 hr by two-fold serial broth dilution method; details: ATCC 11775, 48 h
[5] = tested on: Bacillus subtilis; test: Antimicrobial activity against Bacillus subtilis ATCC 6633 after 48 hr by two-fold serial broth dilution method; details: ATCC 6633, 48 h

Structure (SMILES)	MFC [1] [µg/mL]	MIC [1] [µg/mL]	MBC [2] [µg/mL]	MIC [2] [µg/mL]	MBC [3] [µg/mL]	MIC [3] [µg/mL]	MBC [4] [µg/mL]	MIC [4] [µg/mL]	MBC [5] [µg/mL]	MIC [5] [µg/mL]
COc1ccc(OC)c(/C=C/C2=NN(C(C)=O)C(c3ccccc3)O2)c1 (stereo not given)	50 (≈ 142 µM)	50 (≈ 142 µM)	100 (≈ 284 µM)	100 (≈ 284 µM)	50 (≈ 142 µM)	25 (≈ 70.9 µM)	100 (≈ 284 µM)	100 (≈ 284 µM)	50 (≈ 142 µM)	50 (≈ 142 µM)
COc1ccc(OC)c(/C=C/c2nnc(Nc3ccc(C)cc3)o2)c1	100 (≈ 296 µM)	100 (≈ 296 µM)	50 (≈ 148 µM)	50 (≈ 148 µM)	100 (≈ 296 µM)	100 (≈ 296 µM)	50 (≈ 148 µM)	50 (≈ 148 µM)	100 (≈ 296 µM)	100 (≈ 296 µM)
COc1ccc(OC)c(/C=C/c2nnc(Nc3ccccc3)s2)c1	50 (≈ 147 µM)	50 (≈ 147 µM)	100 (≈ 295 µM)	100 (≈ 295 µM)	50 (≈ 147 µM)	50 (≈ 147 µM)	50 (≈ 147 µM)	50 (≈ 147 µM)	100 (≈ 295 µM)	100 (≈ 295 µM)
COc1ccc(OC)c(/C=C/c2nnc(S)n2-c2ccccc2)c1	100 (≈ 295 µM)	100 (≈ 295 µM)	100 (≈ 295 µM)	100 (≈ 295 µM)	50 (≈ 147 µM)	50 (≈ 147 µM)	50 (≈ 147 µM)	25 (≈ 73.7 µM)	50 (≈ 147 µM)	50 (≈ 147 µM)
COc1ccc(OC)c(/C=C/c2nnc(Nc3ccc(C)cc3)s2)c1	50 (≈ 141 µM)	50 (≈ 141 µM)	100 (≈ 283 µM)	100 (≈ 283 µM)	100 (≈ 283 µM)	100 (≈ 283 µM)	200 (≈ 566 µM)	100 (≈ 283 µM)	100 (≈ 283 µM)	100 (≈ 283 µM)
CC1(C)S[C@@H]2[C@H](NC(=O)[C@H](N)c3ccccc3)C(=O)N2[C@H]1C(=O)O.O.O.O [AMPICILLIN TRIHYDRATE]	–	–	–	50	–	5	–	10	–	12.5
CCSc1nnc(/C=C/c2cc(OC)ccc2OC)n1-c1ccccc1	50 (≈ 136 µM)	50 (≈ 136 µM)	100 (≈ 272 µM)	100 (≈ 272 µM)	100 (≈ 272 µM)	100 (≈ 272 µM)	100 (≈ 272 µM)	100 (≈ 272 µM)	100 (≈ 272 µM)	100 (≈ 272 µM)
COc1ccc(OC)c(/C=C/C(=O)N/N=C/c2ccc([N+](=O)[O-])cc2)c1	50 (≈ 141 µM)	50 (≈ 141 µM)	50 (≈ 141 µM)	50 (≈ 141 µM)	100 (≈ 281 µM)	100 (≈ 281 µM)	50 (≈ 141 µM)	50 (≈ 141 µM)	50 (≈ 141 µM)	50 (≈ 141 µM)
CCSc1nnc(/C=C/c2cc(OC)ccc2OC)n1-c1ccc(Cl)cc1	50 (≈ 124 µM)	50 (≈ 124 µM)	50 (≈ 124 µM)	50 (≈ 124 µM)	100 (≈ 249 µM)	100 (≈ 249 µM)	50 (≈ 124 µM)	50 (≈ 124 µM)	100 (≈ 249 µM)	50 (≈ 124 µM)
CCSc1nnc(/C=C/c2cc(OC)ccc2OC)n1-c1ccc(C)cc1	100 (≈ 262 µM)	100 (≈ 262 µM)	100 (≈ 262 µM)	100 (≈ 262 µM)	100 (≈ 262 µM)	100 (≈ 262 µM)	100 (≈ 262 µM)	100 (≈ 262 µM)	100 (≈ 262 µM)	50 (≈ 131 µM)
COc1ccc(OC)c(/C=C/C2=NN(C(C)=O)C(c3ccc(Cl)cc3)O2)c1 (stereo not given)	100 (≈ 259 µM)	50 (≈ 129 µM)	50 (≈ 129 µM)	25 (≈ 64.6 µM)	100 (≈ 259 µM)	100 (≈ 259 µM)	50 (≈ 129 µM)	25 (≈ 64.6 µM)	50 (≈ 129 µM)	50 (≈ 129 µM)
Clc1ccccc1C(c1ccccc1)(c1ccccc1)n1ccnc1 [CLOTRIMAZOLE]	–	5 (≈ 14.5 µM)	–	–	–	–	–	–	–	–
COc1ccc(OC)c(/C=C/C2=NN(C(C)=O)C(c3ccc([N+](=O)[O-])cc3)O2)c1 (stereo not given)	100 (≈ 252 µM)	100 (≈ 252 µM)	100 (≈ 252 µM)	50 (≈ 126 µM)	100 (≈ 252 µM)	100 (≈ 252 µM)	100 (≈ 252 µM)	50 (≈ 126 µM)	100 (≈ 252 µM)	50 (≈ 126 µM)
